From patent US20050119190A1, “Inhibitors of the blood-clotting factor xa, production thereof and use of the same” (priority 2002, published 2005)
Structures can show the parent of a compound that is named as a salt.

What was measured:
[1] = molecular target: T1, F Xa (bovine) (Bos taurus, UniProt P00743); test: Inhibition of F Xa, Ki by the method of Dixon, chromogenic substrate Moc-D-Nle-Gly-Arg-pNA; assay type: biochemical
T1 construct: purchased Diagnostic Reagents Ltd, Thame, GB
Procedure: The inhibitory effect was determined by incubating 200 μl of Tris buffer (0.05 M, 0.154 M NaCI, 5% ethanol, pH 8.0; contains the inhibitor), 25 μl of substrate (Moc-D-Nle-Gly-Arg-pNA in H2O; Pentapharm Ltd., Basel, Switzerland) and 50 μl of F Xa (bovine, Diagnostic Reagents Ltd, Thame, GB) at 25° C. After 3 min, the reaction was stopped by adding 25 μl of acetic acid (50%), and the absorption at 405 nm was determined using a microplate reader (MR 5000, Dynatech, Denkendorf, Germany). The Ki values were found by the method of Dixon (Biochem. J. 55, 170-171, 1953) by linear regression using a computer program. The Ki values are the average of at least three determinations.

[2] = molecular target: F Xa; settings: values from cited literature; cited from earlier work
[3] = Example 4, inhibition of factor Xa by inhibitors of formula I
[4] = Example 2, bovine F Xa, 25° C., pH 8.0, average of at least three determinations

T1 sequence (P00743 234-492 limits assumed): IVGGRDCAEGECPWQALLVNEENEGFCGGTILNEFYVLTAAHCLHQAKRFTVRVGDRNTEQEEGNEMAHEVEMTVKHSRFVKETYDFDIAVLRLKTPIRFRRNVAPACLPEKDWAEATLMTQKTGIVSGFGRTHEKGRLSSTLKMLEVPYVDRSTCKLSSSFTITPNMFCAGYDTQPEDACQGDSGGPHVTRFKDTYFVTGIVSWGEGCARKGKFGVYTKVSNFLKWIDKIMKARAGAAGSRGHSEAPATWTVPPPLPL
T1 sequence (P00743 41-180 partner limits assumed): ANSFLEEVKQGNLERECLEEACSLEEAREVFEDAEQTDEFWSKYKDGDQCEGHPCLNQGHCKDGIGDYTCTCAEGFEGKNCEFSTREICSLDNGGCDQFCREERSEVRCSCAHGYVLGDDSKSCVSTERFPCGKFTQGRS

**Q.** Which Ki [1, 3] does the source give for CC(C)(C)OC[C@@H](NS(=O)(=O)Cc1cccc(C(=O)O)c1)C(=O)NCC(=O)NCc1ccc(C(=N)N)cc1 [compound 19] here?
**A.** The Ki was 130 nM.

**Q.** For N=C(N)c1ccc(CNC(=O)CNC(=O)[C@@H](Cc2cccc(C(=N)N)c2)NS(=O)(=O)Cc2ccccc2)cc1 [No. 1, Benzylsulfonyl-dPhe(3-amidino)-Gly 4-(amidino)benzylamide×2 TFA], which Ki [1, 3] is on record?
**A.** The Ki was 34 nM.

**Q.** Which Ki [1, 3] does the source give for CC(C)(C)OC[C@@H](NS(=O)(=O)Cc1ccc2ccccc2c1)C(=O)NCC(=O)NCc1ccc(C(=N)N)cc1 [compound 15] here?
**A.** Its Ki is 78 nM.

**Q.** Which Ki [1, 3] does the source give for COC(=O)c1ccc(CS(=O)(=O)N[C@H](COC(C)(C)C)C(=O)NCC(=O)NCc2ccc(C(=N)N)cc2)cc1 [compound 21] here?
**A.** Its Ki is 160 nM.

**Q.** With N=C(N)c1ccc(C=C2CCCCC(=Cc3ccc(C(=N)N)cc3)C2=O)cc1 [BABCH] as the compound, how does the Ki [2] read?
**A.** Its Ki is 13 nM.

**Q.** For CC(C)(C)OC[C@@H](NS(=O)(=O)Cc1ccccc1)C(=O)NCC(=O)NCc1ccc(C(N)=NO)cc1 [compound 33], which Ki [1, 3] is on record?
**A.** The Ki was 26000 nM.

**Q.** With CC(C)(C)OC[C@@H](NS(=O)(=O)Cc1ccc(C(=O)O)cc1)C(=O)NCC(=O)NCc1ccc(C(=N)N)cc1 [compound 10] as the compound, how does the Ki [1, 3] read?
**A.** The Ki was 53 nM.

**Q.** With CC(C)(C)OC[C@@H](NS(=O)(=O)Cc1ccc(Cl)c(Cl)c1)C(=O)NCC(=O)NCc1ccc(C(=N)N)cc1 [compound 16] as the compound, how does the Ki [1, 3] read?
**A.** The Ki was 83 nM.

**Q.** Which Ki [1, 3] does the source give for CC(C)(C)OC[C@@H](NS(=O)(=O)CCc1cccc2ccccc12)C(=O)NCC(=O)NCc1ccc(C(=N)N)cc1 [compound 28] here?
**A.** Its Ki is 280 nM.

**Q.** For CC(C)(C)OC[C@@H](NS(=O)(=O)Cc1ccccc1C(=O)O)C(=O)NCC(=O)NCc1ccc(C(=N)N)cc1 [compound 20], which Ki [1, 3] is on record?
**A.** The Ki was 140 nM.

**Q.** For CC(C)(C)OC[C@@H](NS(=O)(=O)Cc1ccccc1)C(=O)N[C@@H](CCC(=O)O)C(=O)NCc1ccc(C(=N)N)cc1 [Bzl—SO2 D CH2—O—tBu H CH—(CH2)2—COOH CH2, Benzylsulfonyl-D-Ser(tBu)-Glu 4-amidinobenzylamide×TFA], which Ki [1, 4] is on record?
**A.** The Ki was 250 nM.

**Q.** What about the Ki [1, 3] of the same compound?
**A.** The Ki was 6.5 nM.

**Q.** With CC(C)(C)OC[C@@H](NS(=O)(=O)Cc1ccc(F)cc1)C(=O)NCC(=O)NCc1ccc(C(=N)N)cc1 [compound 9] as the compound, how does the Ki [1, 3] read?
**A.** Its Ki is 36 nM.

**Q.** For CC(C)(C)OC[C@@H](NS(=O)(=O)Cc1ccccc1)C(=O)N[C@@H](CO)C(=O)NCc1ccc(C(=N)N)cc1 [No. 11, Bzls-dSer(tBu)-Ser 4-(amidino)benzylamide×TFA], which Ki [1, 3] is on record?
**A.** Its Ki is 28 nM.

**Q.** Which Ki [1, 3] does the source give for N=C(N)c1ccc(CNC(=O)CNC(=O)[C@@H](Cc2ccc(C(=N)N)cc2)NS(=O)(=O)Cc2ccccc2)cc1 [compound 26] here?
**A.** The Ki was 260 nM.

**Q.** With N=C(N)NCCC[C@@H](NS(=O)(=O)CC1CCCCC1)C(=O)NCC(=O)NCc1ccc(C(=N)N)cc1 [compound 2] as the compound, how does the Ki [1, 3] read?
**A.** Its Ki is 6.7 nM.

**Q.** For CC(C)(C)OC[C@@H](NS(=O)(=O)Cc1ccccc1)C(=O)NCC(=O)NCc1ccc(C(=N)N)cc1 [Bzl—SO2 D CH2—O—tBu H CH2 CH2, Benzylsulfonyl-D-Ser(tBu)-Gly 4-amidinobenzylamide], which Ki [1, 4] is on record?
**A.** Its Ki is 50 nM.

**Q.** For CC(C)(C)OC[C@@H](NS(=O)(=O)Cc1ccc(Cl)cc1)C(=O)NCC(=O)NCc1ccc(C(=N)N)cc1 [compound 3], which Ki [1, 3] is on record?
**A.** The Ki was 14 nM.

**Q.** For N=C(N)c1ccc(CNC(=O)C(CCCCN)NC(=O)C(CC2CCCCC2)NS(=O)(=O)Cc2ccccc2)cc1 (stereo not drawn) [compound 13], which Ki [1, 3] is on record?
**A.** The Ki was 67 nM.

**Q.** Which Ki [1, 3] does the source give for CC(C)(C)OC[C@@H](NS(=O)(=O)Cc1ccccc1)C(=O)N[C@@H](CO)C(=O)NCc1ccc(C(=N)N)cc1 [compound 11] here?
**A.** Its Ki is 54 nM.

**Q.** For CC(C)(C)OC[C@@H](NS(=O)(=O)Cc1cccc(C(=O)O)c1)C(=O)NCC(=O)NCc1ccc(C(=N)N)cc1 [No. 19, 3-(HOOC)Benzylsulfonyl-dSer(tBu)-Gly 4-amidinobenzylamide×TFA], which Ki [1, 3] is on record?
**A.** The Ki was 27 nM.

**Q.** Which Ki [1, 3] does the source give for CC(C)(C)OC[C@@H](NS(=O)(=O)Cc1ccc(C#N)cc1)C(=O)NCC(=O)NCc1ccc(C(=N)N)cc1 [compound 12] here?
**A.** Its Ki is 65 nM.

**Q.** Which Ki [1, 3] does the source give for “4-(Aminomethyl)benzylsulfonyl-dSer(tBu)-Gly 4-amidinobenzylamide×2 TFA [Example 7]” here?
**A.** The Ki was 29 nM.

**Q.** For CC(C)(C)OC[C@@H](NS(=O)(=O)Cc1ccc(CC(=O)O)cc1)C(=O)NCC(=O)NCc1ccc(C(=N)N)cc1 [compound 23], which Ki [1, 3] is on record?
**A.** Its Ki is 170 nM.

**Q.** Which Ki [1, 3] does the source give for CC(C)(C)OC[C@@H](NS(=O)(=O)Cc1ccncc1)C(=O)NCC(=O)NCc1ccc(C(=N)N)cc1 [compound 22] here?
**A.** Its Ki is 170 nM.

**Q.** Which Ki [1, 4] does the source give for CC(C)(C)OC[C@@H](NS(=O)(=O)Cc1ccccc1)C(=O)NC(CC(=O)O)C(=O)NCc1ccc(C(=N)N)cc1 (stereo partly drawn) [Bzl—SO2 D CH2—O—tBu H CH—CH2—COOH CH2] here?
**A.** Its Ki is 1200 nM.

**Q.** For CC(C)(C)OCC(NS(=O)(=O)Cc1ccc(C(=O)O)cc1)C(=O)NC(CO)C(=O)NCc1ccc(C(=N)N)cc1 (stereo not drawn) [compound 27], which Ki [1, 3] is on record?
**A.** The Ki was 270 nM.

**Q.** For COC(=O)Cc1ccc(CS(=O)(=O)N[C@H](COC(C)(C)C)C(=O)NCC(=O)NCc2ccc(C(=N)N)cc2)cc1 [compound 14], which Ki [1, 3] is on record?
**A.** Its Ki is 70 nM.

**Q.** With N=C(N)c1ccc(CNC(=O)CNC(=O)[C@@H](Cc2c[nH]cn2)NS(=O)(=O)Cc2ccccc2)cc1 [compound 32] as the compound, how does the Ki [1, 3] read?
**A.** The Ki was 670 nM.

**Q.** For CC(C)(C)OC[C@@H](NS(=O)(=O)CCc1ccccc1)C(=O)NCC(=O)NCc1ccc(C(=N)N)cc1 [compound 17], which Ki [1, 3] is on record?
**A.** The Ki was 88 nM.
